Like-named read-outs stand apart in the source and are kept apart here. No end group written: not given here.
Experiments:
[1] = system: Lactococcus garvieae LMGT 1546
Description: (§1) Bacterial strains, growth conditions, bacteriocins and antimicrobial assays. All the strains (see below) used in minimal inhibitory concentration (MIC) assays (Varahan et al., 2014, M. Bio. 5:e01726-01714) were grown in BHI medium (Oxoid) at 30° C. without shaking. A collection of E. faecium strains isolated from blood in patients from different European hospitals was received from Department of Medical Microbiology, University Medical Center Utrecht, the Netherlands. […] Synthesized peptides were solubilized to concentrations of 10.0-0.1 mg/ml in 0.1% (vol/vol) trifluoroacetic acid and stored at −20° C. until use. […] Bacteriocin activity was determined by microtiter plate assay as previously described (Holo et al., 1991, J. Bacteriol., 173:3879-3887). The MIC was defined as the minimal bacteriocin concentration that inhibited the growth of the indicator strain by at least 50% (50% of the turbidity of the control culture without bacteriocin) in 200 μl culture. CD Spectroscopy Circular dichroism (CD) spectra were recorded using a Jasco J-810 spectropolarimeter (Jasco International Co) calibrated with D-camphor-10-sulfonate (Icatayama Chemical). All measurements were made using a quartz cuvette (Sterna) with 0.1 cm path length. Samples were scanned five times with a scanning rate of 50 nm/min with a bandwidth of 0.5 nm and response time of 1 s over the wavelength range 190-250 nm. Spectra were recorded at different (30 and 50%) trifluoroethanol (TFE) (Aldridge) concentrations at 25° C. The approximate α-helical content of the protein was estimated from its molar ellipticity at 222 nm (Scholtz et al., 1991, Biopolymers 31:1463-1470). NMR Spectroscopy The experiments were run on a sample containing 1.0 mM EntK1, 50% D3-TFE (99.5% D) (Aldrich), Milli-Q water and 0.2 mM of 4,4-dimethyl-4-silapentane-1-sulfonic acid (DSS) (Larodan). 2D NOESY (Jeener et al., 1979, J. Magn. Reson., 71:4546-4553), 2D TOCSY (Braunschweiler and Ernst, 1983, J. Magn. Reson., 53:521-528), 2D DQCOSY, ^15N-HSQC (Davis et al., 1992, J. Magn. Reson., 98:207-216) and ^13C-HSQC (Hurd, 1991, J. Magn. Reson., 91:648-653) were recorded. The data was acquired on a 600 MHz Bruker Avance II spectrometer with four channels and a 5 mm TCI cryoprobe (Bruker Biospin). NOESY spectra with mixing times between 120 ms and 300 ms were obtained for both samples. TOCSY mixing times of 15-80 ms were used. The experiments were run at 298.15 K. Spectra were processed using the Topspin program (Bruker Biospin). 4,4-dimethyl-4-silapentane-1-sulfonic acid (DSS) was used as a chemical shift standard, and ^15N and ^13C data were referenced using frequency ratios as described in (Wishart et al., 1995, J. Biomol. NMR., 6:135-140). For visualization, assignment and integration of the spectra the computer program CARA was used (Keller, 2004, The Computer Aided Resonance Assignment Tutorial. CANTINA Verlag, Goldau, Switzerland). The spectra were assigned using standard methods. Dihedral angle restraints were obtained from the chemical shift values using the program TALOS-N(Shen and Bax, 2013, J. Biomol. NMR, 56:227-241). Nuclear Overhauser effect (NOE) distance restraints were calculated from the peak volumes in the NOESY spectra with NOESY mixing time of 200 ms. All structure calculations were made using the structure calculation program CYANA 2.1 (Guntert et al., 1997, J. Mol. Biol., 273:283-298; Herrmann et al., 2002, J. Mol. Biol., 319:209-227). The annealing macro in CYANA calculated 100 structures. The 20 structures with the lowest energy were kept and analyzed further. The root-mean-square deviation (RMSD) was calculated and the structures were visualized using MolMol (Koradi et al., 1996, J. Mol. Graph., 14:51-55, 29-32). Generation of bacteriocin resistant mutants of E. faecalis and E. faecium.

E. faecalis LMGT 3358 = system: E. faecalis LMGT 3358
Description: as §1

E. faecalis LMGT 3567 = system: E. faecalis LMGT 3567
Description: as §1

E. faecium LMGT 3192 = system: E. faecium LMGT 3192
Description: as §1

[2] = system: Staphylococcus. aureus LMGT 3310
Description: as §1

[3] = system: Lactobacillus sakei LMGT 2334
Description: as §1

L. lactis LMGT 2095 = system: L. lactis LMGT 2095
Description: as §1

E. faecium LMGT 2769 = system: E. faecium LMGT 2769
Description: as §1

L. lactis LMGT 2084 = system: L. lactis LMGT 2084
Description: as §1

S. aureus LMGT 3260 = system: S. aureus LMGT 3260
Description: as §1

L. curvatus LMGT 2355 = system: L. curvatus LMGT 2355
Description: as §1

E. faecalis LMGT 3572 = system: E. faecalis LMGT 3572
Description: as §1

E. faecalis LMGT 3143 = system: E. faecalis LMGT 3143
Description: as §1

S. pneumoniae ms2 = conditions: ms2, rseP E19>A, induced with ComS (2 μM)
Description: as §1

[4] = system: Enterococcus. faecalis LMGT 3199
Description: as §1

E. faecalis LMGT 3571 = system: E. faecalis LMGT 3571
Description: as §1

E. faecium LMGT 3599 = system: E. faecium LMGT 3599
Description: as §1

S. epidermidis LMGT 3026 = system: S. epidermidis LMGT 3026
Description: as §1

S. aureus LMGT 3258 = system: S. aureus LMGT 3258
Description: as §1

S. aureus LMGT 3266 = system: S. aureus LMGT 3266
Description: as §1

E. faecalis LMGT 3386 = system: E. faecalis LMGT 3386
Description: as §1

E. faecium LMGT 2787 = system: E. faecium LMGT 2787
Description: as §1

MKFKFNPTGTIVKKLTQYEIAWFKNKHGYYPWEIPRC [EntK1]
MIC 50 [1]: 1.37 µM | MIC 50 (E. faecalis LMGT 3358): 2.7 µM | MIC 50 (E. faecalis LMGT 3567): >5.5 µM | MIC 50 (E. faecium LMGT 3192): 0.02 µM | MIC 50 [2]: >5.5 µM | MIC 50 ([3]; Lactobacillus sakei LMGT 2334): >5.5 µM | MIC 50 (L. lactis LMGT 2095): >5.5 µM | MIC 50 (E. faecium LMGT 2769): 0.045 µM | MIC 50 (L. lactis LMGT 2084): >5.5 µM | MIC 50 (S. aureus LMGT 3260): >5.5 µM | MIC 50 (L. curvatus LMGT 2355): 5.5 µM | MIC 50 (E. faecalis LMGT 3572): >5.5 µM | MIC 50 (E. faecalis LMGT 3143): >5.5 µM | MIC (S. pneumoniae ms2): >5.5 µM | MIC 50 [4]: 5.5 µM | MIC 50 (E. faecalis LMGT 3571): >5.5 µM | MIC 50 (E. faecium LMGT 3599): 0.085 µM | MIC 50 (S. epidermidis LMGT 3026): >5.5 µM | MIC 50 (S. aureus LMGT 3258): >5.5 µM | MIC 50 (S. aureus LMGT 3266): >5.5 µM | MIC 50 (E. faecalis LMGT 3386): >5.5 µM | MIC 50 (E. faecium LMGT 2787): 0.02 µM

MKTILRFVAGYDIASHKKKTGGYPWERGKA [LsbB, reference compound]
MIC 50 [1]: >7 µM | MIC 50 (E. faecalis LMGT 3358): >7 µM | MIC 50 (E. faecalis LMGT 3567): >7 µM | MIC 50 (E. faecium LMGT 3192): >7 µM | MIC 50 [2]: >7 µM | MIC 50 ([3]; LMGT 2334): >7 µM | MIC 50 (L. lactis LMGT 2095): >7 µM | MIC 50 (E. faecium LMGT 2769): >7 µM | MIC 50 (L. lactis LMGT 2084): >7 µM | MIC 50 (S. aureus LMGT 3260): >7 µM | MIC 50 (L. curvatus LMGT 2355): >7 µM | MIC 50 (E. faecalis LMGT 3572): >7 µM | MIC 50 (E. faecalis LMGT 3143): >7 µM | MIC (S. pneumoniae ms2): >7 µM | MIC 50 [4]: >7 µM | MIC 50 (E. faecalis LMGT 3571): >7 µM | MIC 50 (E. faecium LMGT 3599): >7 µM | MIC 50 (S. epidermidis LMGT 3026): >7 µM | MIC 50 (S. aureus LMGT 3258): >7 µM | MIC 50 (S. aureus LMGT 3266): >7 µM | MIC 50 (E. faecalis LMGT 3386): >7 µM | MIC 50 (E. faecium LMGT 2787): >7 µM

MLAKIKAMIKKFPNPYTLAAKLTTYEINWYKQQYGRYPWERPVA [EntEJ97]
MIC 50 [1]: 0.295 µM | MIC 50 (E. faecalis LMGT 3358): 0.075 µM | MIC 50 (E. faecalis LMGT 3567): 0.295 µM | MIC 50 (E. faecium LMGT 3192): 0.295 µM | MIC 50 [2]: 0.59 µM | MIC 50 ([3]; Lactobacillus sakei LMGT 2334): >4.7 µM | MIC 50 (L. lactis LMGT 2095): 0.145 µM | MIC 50 (E. faecium LMGT 2769): 0.145 µM | MIC 50 (L. lactis LMGT 2084): 0.295 µM | MIC 50 (S. aureus LMGT 3260): 2.3 µM | MIC 50 (L. curvatus LMGT 2355): 0.145 µM | MIC 50 (E. faecalis LMGT 3572): 0.145 µM | MIC 50 (E. faecalis LMGT 3143): 0.145 µM | MIC (S. pneumoniae ms2): 0.3 µM | MIC 50 [4]: 0.145 µM | MIC 50 (E. faecalis LMGT 3571): 0.295 µM | MIC 50 (E. faecium LMGT 3599): 0.145 µM | MIC 50 (S. epidermidis LMGT 3026): >4.7 µM | MIC 50 (S. aureus LMGT 3258): >4.7 µM | MIC 50 (S. aureus LMGT 3266): 1.175 µM | MIC 50 (E. faecalis LMGT 3386): 0.295 µM | MIC 50 (E. faecium LMGT 2787): 0.145 µM

Source: patent US11648289B2, “Antibacterial method” (priority 2016, dated 2023)
